For seven compounds, mortality results are on record in patent US20260206754A1, “HETEROARYL COMPOUNDS FOR THE CONTROL OF INVERTEBRATE PESTS” (priority 2022, published 2026).

SMILES strings stand for the structures. Where two headings read alike, the source gives them in different places.

One may read the mortality as the percentage killed.

Holding throughout (type): in vivo
Assay [1] deals with yellow fever mosquito (Aedes aegypti). Kind of assay: whole plant or invertebrate. The following applies: for mortality at 2500 ppm: 48 h, larval mortality after 2 days, read-out: mortality in comparison with untreated controls; for mortality at 90 ppm: comparative experiment C.4, read-out: B.5, 90 ppm (mortality). The procedure: (§1) If not otherwise specified, the test solutions were prepared as follow: The active compound was dissolved at the desired concentration in a mixture of 1:1 (vol:vol) distilled water:acetone. The test solution was prepared on the day of use.
B.5 Yellow Fever Mosquito (Aedes aegypti)
For evaluating control of yellow fever mosquito (Aedes aegypti) the test unit consisted of 96-well-microtiter plates containing 200 μl of tap water per well and 5-15 freshly hatched A. aegypti larvae.
The active compounds were formulated using a solution containing 75% (v/v) water and 25% (v/v) DMSO. Different concentrations of formulated compounds or mixtures were sprayed onto the insect diet at 2.5 μl, using a custom-built micro atomizer, at two replications.
After application, microtiter plates were incubated at 281° C., 80±5% RH for 2 days. Larval mortality was then visually assessed.

In assay [2] the test system is Southern armyworm (Spodoptera eridania), 2nd instar larvae. Kind of assay: B.3 Southern armyworm, 2nd instar larvae, foliar spray on lima bean plants. Particulars: 96 h, 4 days after treatment, read-out: mortality in comparison with untreated controls. The procedure:
B.3 Southern Armyworm (Spodoptera eridania), 2nd Instar Larvae
The active compounds were formulated by a Tecan liquid handler in 100% cyclohexanone as a 10,000-ppm solution supplied in tubes. The 10,000-ppm solution was serially diluted in 100% cyclohexanone to make interim solutions. These served as stock solutions for which final dilutions were made by the Tecan in 50% acetone:50% water (v/v) into 10 or 20 ml glass vials. A non-ionic surfactant (Kinetic@) was included in the solution at a volume of 0.01% (v/v). The vials were then inserted into an automated electrostatic sprayer equipped with an atomizing nozzle for application to plants/insects. Lima bean plants (variety Sieva) were grown 2 plants to a pot and selected for treatment at the 1st true leaf stage. Test solutions were sprayed onto the foliage by an auto-mated electrostatic plant sprayer equipped with an atomizing spray nozzle. The plants were dried in the sprayer fume hood and then removed from the sprayer. Each pot was placed into perforated plastic bags with a zip closure. Ten to 11 armyworm larvae were placed into the bag and the bags zipped closed. Test plants were maintained in a growth room at about 25° C. and about 20-40% relative humidity for 4 days, avoiding direct exposure to fluorescent light (14:10 light:dark photoperiod) to prevent trapping of heat inside the bags. Mortality and reduced feeding were assessed 4 days after treatment, compared to untreated control plants.

For assay [3], the system named is tobacco budworm (Heliothis virescens). Kind of assay: B.1 Tobacco budworm, 96-well microtiter plate diet test with eggs. The following applies: for mortality at 2500 ppm: 120 h, egg and larval mortality after 5 days, read-out: mortality in comparison with untreated controls. Here is the method: as §1
B.1 Tobacco Budworm (Heliothis virescens)
For evaluating control of tobacco budworm (Heliothis virescens) the test unit consisted of 96-well-microtiter plates containing an insect diet and 15-25 H. virescens eggs.
The compounds were formulated using a solution containing 75% v/v water and 25% v/v DMSO. Different concentrations of formulated compounds were sprayed onto the insect diet at 10 μl, using a custom-built micro atomizer, at two replications.
After application, microtiter plates were incubated at about 28±1° C. and about 80±5% relative humidity for 5 days. Egg and larval mortality was then visually assessed.

The subject of assay [4] is green peach aphid (Myzus persicae). Kind of assay: B.6 Green peach aphid, systemic test with artificial diet under membrane. Here is the method: as §1
B.6 Green Peach Aphid (Myzus persicae)
For evaluating control of green peach aphid (Myzus persicae) through systemic means, the test unit consisted of 96-well-microtiter plates containing liquid artificial diet under an artificial membrane.
The compounds were formulated using a solution containing 75% v/v water and 25% v/v DMSO. Different concentrations of formulated compounds were pipetted into the aphid diet, using a custom built pipetter, at two replications.
After application, 5-8 adult aphids were placed on the artificial membrane inside the microtiter plate wells. The aphids were then allowed to suck on the treated aphid diet and incubated at about 23±1° C. and about 50±5% relative humidity for 3 days. Aphid mortality and fecundity was then visually assessed.

For assay [5], the system named is boll weevil (Anthonomus grandis). The assay is described as follows: B.2 Boll weevil, 96-well microtiter plate diet test with eggs. The following applies: Anthonomus grandis; for mortality at 2500 ppm: 120 h, egg and larval mortality after 5 days, read-out: mortality in comparison with untreated controls. Here is the method:
as §1
B.2 Boll Weevil (Anthonomus grandis)
For evaluating control of boll weevil (Anthonomus grandis) the test unit consisted of 96-well-microtiter plates containing an insect diet and 5-10 A. grandis eggs.
The compounds were formulated using a solution containing 75% v/v water and 25% v/v DMSO. Different concentrations of formulated compounds were sprayed onto the insect diet at 5 μl, using a custom-built micro atomizer, at two replications.
After application, microtiter plates were incubated at about 25±1° C. and about 75±5% relative humidity for 5 days. Egg and larval mortality was then visually assessed.

Setting [6] is: 72 h, aphid mortality after 3 days, read-out: mortality in comparison with untreated controls.

With `CC(NC(=O)c1cc(C(F)(F)F)cc(C(F)(F)F)c1)c1nccnc1-n1cc(-c2cccnc2)nn1` (stereo not drawn) [I-9], the mortality at 2500 ppm in assay [1], in assay [3], in assay [4] (setting [6]) and in assay [5] was not below 75% throughout. In addition, the mortality at 300 ppm in assay [2] is not below 75%. In assay [4] (90 ppm, comparative experiment C.3), this compound registered a mortality at 90 ppm of 100%. The mortality at 30 ppm in assay [5] (30 ppm, comparative experiment C.3) is 100%.
`CC(NC(=O)c1cc(C(F)(F)F)cc(C(F)(F)F)c1)c1nccnc1-n1cc(-c2ccncn2)cn1` (stereo not drawn) [I-42]: the mortality at 90 ppm in assay [1] and in assay [5] (comparative experiment C.4) was 100% each time. The mortality at 2500 ppm in assay [1], in assay [3], in assay [4] (setting [6]) and in assay [5] was not below 75% throughout. For the same compound, the mortality at 300 ppm in assay [2] was not below 75%. The mortality at 30 ppm in assay [4] (comparative experiment C.4) amounted to 100%.
For `CC(NC(=O)c1cc(C(F)(F)F)cc(C(F)(F)F)c1)c1nccnc1-n1cc(S(C)(=O)=O)cn1` (stereo not drawn) [I-17, N-[1-[3-(4-methylsulfonylpyrazol-1-yl)pyrazin-2-yl]ethyl]-3,5-bis(trifluoromethyl)benzamide], in assay [1] (80 ppm, comparative experiment C.5, read-out: B.5, 80 ppm (mortality)), the mortality at 80 ppm came out at 100%. The mortality at 2500 ppm in assay [1] is not below 75%; in assay [3] it was not below 75%; in assay [4] (comparative experiment C.5, read-out: B.6, 2500 ppm (mortality)), 100%; in assay [4] (setting [6]) it was not below 75%; in assay [5] it was not below 75%. Besides, the mortality at 300 ppm in assay [2] was not below 75%. For the same compound, the mortality at 90 ppm in assay [5] (comparative experiment C.5) amounted to 100%.
Consider `CC(NC(=O)c1cc(C(F)(F)F)cc(C(F)(F)F)c1)c1nccnc1-n1ncc(-c2cccnc2)n1` (stereo not drawn) [I-8], for which the mortality at 2500 ppm in assay [1], in assay [3], in assay [4] (setting [6]) and in assay [5] was not below 75% throughout. Moreover, the mortality at 300 ppm in assay [2] was not below 75%. In assay [4] (comparative experiment C.2), the mortality at 30 ppm worked out at 100%.
As for `CC(NC(=O)c1cc(C(F)(F)F)cc(C(F)(F)F)c1)c1nccnc1-n1cc(-c2nccs2)cn1` (stereo not drawn) [I-51], the mortality at 90 ppm in assay [1] and in assay [5] (comparative experiment C.4) was 100% in each case. The mortality at 2500 ppm in assay [1], in assay [3], in assay [4] (setting [6]) and in assay [5] was not below 75% each time. Besides, the mortality at 300 ppm in assay [2] is not below 75%. The same compound yielded a mortality at 30 ppm in assay [4] (comparative experiment C.4) of 100%.
With `CC(NC(=O)c1cc(C(F)(F)F)cc(C(F)(F)F)c1)c1nccnc1-n1ncc(-c2ccccn2)n1` (stereo not drawn) [I-14, N-[1-[3-[4-(2-pyridyl)triazol-2-yl]pyrazin-2-yl]ethyl]-3,5-bis(trifluoro-methyl)benzamide], the mortality at 2500 ppm in assay [1], in assay [3], in assay [4] (setting [6]) and in assay [5] was not below 75% in each case. Besides, the mortality at 300 ppm in assay [2] was not below 75%. Also, the mortality at 90 ppm in assay [3] (90 ppm, comparative experiment C.1) was 100%. The compound also displayed a mortality at 30 ppm in assay [4] (comparative experiment C.1) of 100%.
On to `CC(NC(=O)c1cc(C(F)(F)F)cc(C(F)(F)F)c1)c1nccnc1-n1cc(SC(F)(F)F)cn1` (stereo not drawn) [I-60, 3,5-bis(trifluoromethyl)-N-[1-[3-[4-(trifluoromethyl-sulfanyl)pyrazol-1-yl]pyrazin-2-yl]ethyl]benzamide], for which the mortality at 2500 ppm in assay [1], in assay [3] and in assay [5] was not below 75% throughout. In addition, the mortality at 300 ppm in assay [2] was not below 75%.
